Among the data in PMC4306947, “Synthesis and Antiproliferative Activity of Thiazolyl-bis-pyrrolo[2,3-b]pyridines and Indolyl-thiazolyl-pyrrolo[2,3-c]pyridines, Nortopsentin Analogues” (Marine Drugs, 2015) are melting point values, retold here.

SMILES strings stand for the structures.

Consider `Brc1cnc2[nH]cc(-c3csc(-c4c[nH]c5ncccc45)n3)c2c1` [Compound 1b, 5-Bromo-3-[2-(1H-pyrrolo[2,3-b]pyridin-3-yl)-1,3-thiazol-4-yl)-1H-pyrrolo[2,3-b]pyridine], for which the melting point (usually the temperature, or range, at which the solid turns liquid) fell in the range of 390 to 391 °C.

Take `COc1ccc2[nH]cc(-c3nc(-c4c[nH]c5c(Cl)nccc45)cs3)c2c1` [Compound 4b, 7-Chloro-3-[2-(5-methoxy-1H-indol-3-yl)-1,3-thiazol-4-yl]-1H-pyrrolo[2,3-c]pyridine]: the melting point was in the range of 223 to 224 °C.

`Fc1cnc2[nH]cc(-c3csc(-c4c[nH]c5ncccc45)n3)c2c1` [Compound 1c, 5-Fluoro-3-[2-(1H-pyrrolo[2,3-b]pyridin-3-yl)-1,3-thiazol-4-yl]-1H-pyrrolo[2,3-b]pyridine] displayed a melting point of 373 to 374 °C.

Regarding `Cn1cc(-c2csc(-c3c[nH]c4ccccc34)n2)c2ccnc(Cl)c21` [Compound 4d, 7-Chloro-3-[2-(1H-indol-3-yl)-1,3-thiazol-4-yl]-1-methyl-1H-pyrrolo[2,3-c]pyridine], the melting point was 210 to 211 °C.

The molecule `Cn1cc(-c2csc(-c3cn(C)c4ncccc34)n2)c2cc(F)cnc21` [Compound 1i, 5-Fluoro-1-methyl-3-[2-(1-methyl-1H-pyrrolo[2,3-b]pyridin-3-yl)-1,3-thiazol-4-yl]-1H-pyrrolo[2,3-b]pyridine] displayed a melting point of 301 to 302 °C.

Molecule `Cn1cc(-c2csc(-c3cn(C)c4ncccc34)n2)c2cc(Br)cnc21` [Compound 1h, 5-Bromo-1-methyl-3-[2-(1-methyl-1H-pyrrolo[2,3-b]pyridin-3-yl)-1,3-thiazol-4-yl]-1H pyrrolo[2,3-b]pyridine] displayed a melting point of 308 °C.

In the case of `c1cnc2[nH]cc(-c3csc(-c4c[nH]c5ncccc45)n3)c2c1` [Compound 1a, 3,3′-(1,3-Thiazole-2,4-diyl)bis(1H-pyrrolo[2,3-b]pyridine)], the melting point lay within 346 to 347 °C.

Molecule `COc1ccc2c(c1)c(-c1nc(-c3cn(C)c4c(Cl)nccc34)cs1)cn2C` [Compound 2f, 7-Chloro-3-[2-(5-methoxy-1-methyl-1H-indol-3-yl)-1,3-thiazol-4-yl]-1-methyl-1H-pyrrolo[2,3-c]pyridine] showed a melting point of 231 to 232 °C.

In the case of `COc1ccc2c(c1)c(-c1nc(-c3c[nH]c4c(Cl)nccc34)cs1)cn2C` [Compound 2b, 7-Chloro-3-[2-(5-methoxy-1-methyl-1H-indol-3-yl)-1,3-thiazol-4-yl]-1H-pyrrolo[2,3-c]pyridine], the melting point lay in the range of 216 to 217 °C.

In turn, `Cn1cc(-c2csc(-c3cn(C)c4ncccc34)n2)c2cccnc21` [Compound 1g, 3,3′-(1,3-Thiazole-2,4-diyl)bis(1-methyl-1H-pyrrolo[2,3-b]pyridine)] showed a melting point of 310 to 311 °C.

In turn, `Cn1cc(-c2nc(-c3cn(C)c4c(Cl)nccc34)cs2)c2cc(F)ccc21` [Compound 2h, 7-Chloro-3-[2-(5-fluoro-1-methyl-1H-indol-3-yl)-1,3-thiazol-4-yl]-1-methyl-1H-pyrrolo[2,3-c]pyridine] registered a melting point of 284 to 285 °C.

The molecule `Cn1cc(-c2nc(-c3c[nH]c4ncc(F)cc34)cs2)c2cccnc21` [Compound 1f, 3-[4-(5-Fluoro-1H-pyrrolo[2,3-b]pyridin-3-yl)-1,3-thiazol-2-yl]-1-methyl-1H-pyrrolo[2,3-b]pyridine] came in with a melting point of 316 °C.

In turn, `Cn1cc(-c2csc(-c3c[nH]c4ccc(Br)cc34)n2)c2ccnc(Cl)c21` [Compound 4f, 3-[2-(5-Bromo-1H-indol-3-yl)-1,3-thiazol-4-yl]-7-chloro-1-methyl-1H-pyrrolo[2,3-c]pyridine] registered a melting point of 273 to 274 °C.

As to `Cn1cc(-c2nc(-c3c[nH]c4c(Cl)nccc34)cs2)c2ccccc21` [Compound 2a, 7-Chloro-3-[2-(1-methyl-1H-indol-3-yl)-1,3-thiazol-4-yl]-1H-pyrrolo[2,3-c]pyridine], the melting point lay within 326 to 327 °C.

`Cn1cc(-c2nc(-c3c[nH]c4ncccc34)cs2)c2cccnc21` [Compound 1d, 1-Methyl-3-[4-(1H-pyrrolo[2,3-b]pyridin-3-yl)-1,3-thiazol-2-yl]-1H-pyrrolo[2,3-b]pyridine] gave a melting point of 278 to 279 °C.

In turn, `Cn1cc(-c2csc(-c3cn(C(=O)OC(C)(C)C)c4ccccc34)n2)c2ccnc(Cl)c21` [Compound 3d, Tert-Butyl 3-[4-(7-chloro-1-methyl-1H-pyrrolo[2,3-c]pyridin-3-yl)-1,3-thiazol-2-yl]-1H-indole-1-carboxylate] displayed a melting point of 279 to 280 °C.

For `COc1ccc2[nH]cc(-c3nc(-c4cn(C)c5c(Cl)nccc45)cs3)c2c1` [Compound 4e, 7-Chloro-3-[2-(5-methoxy-1H-indol-3-yl)-1,3-thiazol-4-yl]-1-methyl-1H-pyrrolo[2,3-c]pyridine], the melting point fell in the range of 184 to 185 °C.

Molecule `COc1ccc2c(c1)c(-c1nc(-c3c[nH]c4c(Cl)nccc34)cs1)cn2C(=O)OC(C)(C)C` [Compound 3b, Tert-Butyl 3-[4-(7-chloro-1H-pyrrolo[2,3-c]pyridin-3-yl)-1,3-thiazol-2-yl]-5-methoxy-1H-indole-1-carboxylate] returned a melting point of 312 to 313 °C.

Regarding `Cn1cc(-c2csc(-c3cn(C(=O)OC(C)(C)C)c4ccc(Br)cc34)n2)c2ccnc(Cl)c21` [Compound 3f, Tert-Butyl 5-bromo-3-[4-(7-chloro-1-methyl-1H-pyrrolo[2,3-c]pyridin-3-yl)-1,3-thiazol-2-yl]-1H-indole-1-carboxylate], the melting point was found to be 257 °C.

Regarding `Cn1cc(-c2nc(-c3c[nH]c4c(Cl)nccc34)cs2)c2cc(F)ccc21` [Compound 2d, 7-Chloro-3-[2-(5-fluoro-1-methyl-1H-indol-3-yl)-1,3-thiazol-4-yl]-1H-pyrrolo[2,3-c]pyridine], the melting point was in the range of 337 to 338 °C.

As for `CC(C)(C)OC(=O)n1cc(-c2nc(-c3c[nH]c4c(Cl)nccc34)cs2)c2cc(Br)ccc21` [Compound 3c, Tert-Butyl 5-bromo-3-[4-(7-chloro-1H-pyrrolo[2,3-c]pyridin-3-yl)-1,3-thiazol-2-yl]-1H-indole-1-carboxylate], the melting point lay in the range of 241 to 242 °C.

`Fc1ccc2[nH]cc(-c3nc(-c4c[nH]c5c(Cl)nccc45)cs3)c2c1` [Compound 2j, 7-Chloro-3-[2-(5-fluoro-1H-indol-3-yl)-1,3-thiazol-4-yl]-1H-pyrrolo[2,3-c]pyridine] showed a melting point of 281 to 282 °C.

`Cn1cc(-c2nc(-c3cn(C)c4c(Cl)nccc34)cs2)c2cc(Br)ccc21` [Compound 2g, 3-[2-(5-Bromo-1-methyl-1H-indol-3-yl)-1,3-thiazol-4-yl]-7-chloro-1-methyl-1H-pyrrolo[2,3-c]pyridine] yielded a melting point of 249 to 250 °C.

Turning to `CC(C)(C)OC(=O)n1cc(-c2nc(-c3c[nH]c4c(Cl)nccc34)cs2)c2ccccc21` [Compound 3a, Tert-Butyl 3-[4-(7-Chloro-1H-pyrrolo[2,3-c]pyridin-3-yl)-1,3-thiazol-2-yl]-1H-indole-1-carboxylate], the melting point lay within 225 to 226 °C.

Consider `Cn1cc(C2(c3c[nH]c4ncccc34)CSC=N2)c2cccnc21` (stereo not shown) [Compound 1j, 1-Methyl-3-[4-(1H-pyrrolo[2,3-b]pyridin-3-yl)-1,3-thiazol-4-yl]-1H-pyrrolo[2,3-b]pyridine], for which the melting point fell in the range of 303 to 304 °C.

In turn, `Cn1cc(-c2csc(-c3c[nH]c4ncccc34)n2)c2cc(F)cnc21` [Compound 1l, 5-Fluoro-1-methyl-3-[2-(1H-pyrrolo[2,3-b]pyridin-3-yl)-1,3-thiazol-4-yl]-1H-pyrrolo[2,3-b]pyridine] showed a melting point of 295 to 296 °C.

As to `Clc1nccc2c(-c3csc(-c4c[nH]c5ccccc45)n3)c[nH]c12` [Compound 4a, 7-Chloro-3-[2-(1H-indol-3-yl)-1,3-thiazol-4-yl]-1H-pyrrolo[2,3-c]pyridine], the melting point lay in the range of 271 to 272 °C.

`Cn1cc(-c2nc(-c3c[nH]c4c(Cl)nccc34)cs2)c2cc(Br)ccc21` [Compound 2c, 3-[2-(5-Bromo-1-methyl-1H-indol-3-yl)-1,3-thiazol-4-yl]-7-chloro-1H-pyrrolo[2,3-c]pyridine]: the melting point fell in the range of 374 to 375 °C.

As for `Cn1cc(-c2csc(-c3c[nH]c4ccc(F)cc34)n2)c2ccnc(Cl)c21` [Compound 2i, 7-Chloro-3-[2-(5-fluoro-1H-indol-3-yl)-1,3-thiazol-4-yl]-1-methyl-1H-pyrrolo[2,3-c]pyridine], the melting point lay within 284 to 285 °C.

Consider `Cn1cc(-c2nc(-c3cn(C)c4c(Cl)nccc34)cs2)c2ccccc21` [Compound 2e, 7-Chloro-1-methyl-3-[2-(1-methyl-1H-indol-3-yl)-1,3-thiazol-4-yl]-1H-pyrrolo[2,3-c]pyridine], for which the melting point lay within 265 to 266 °C.

Molecule `Cn1cc(-c2nc(-c3c[nH]c4ncc(Br)cc34)cs2)c2cccnc21` [Compound 1e, 3-[4-(5-Bromo-1H-pyrrolo[2,3-b]pyridin-3-yl)-1,3-thiazol-2-yl]-1-methyl-1H-pyrrolo[2,3-b]pyridine] returned a melting point of 311 °C.
